Results from the supplement of paper PMC11208160.

Experiment: recombinant barcode read abundance after kanamycin selection (control-corrected) (log10(CPM+1)); higher = more efficient recombination; sequences stand for … in AGTGCAGAGAAAATCGGCCAGTTTTCTCTGCCTGCAGTCCGCATGCCGT…ATTTATGCAGCGGACTGCCTTTCTCCCAAAGTGATAAACCGGACAGTATCATGGACCGGTTTTCCCGGTAATCCGTATTTGCAAGGTTGGTTTCACT; site = the 11-nt target
Outline: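 Recombination efficiency comes from barcode counts at recombinant junctions, converted to counts per million, averaged and corrected against the control. Values appear as log10(CPM+1). They were obtained from a pooled E. coli screen in which each oligo paired a target with an IS621 bridge RNA target-binding loop, and cells were plated in duplicate on chloramphenicol/ampicillin LB agar or on chloramphenicol/ampicillin/kanamycin with 0.1 mM IPTG.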

First: GAGTCCACTTGGGTTCTAACCTGTTGCGTCG [GAGTCCACTAC_LTGcore_CT_RTGcore_CG] (site GAGTCCACTAC) (LTG core: CT, RTG core: CG)
Second: GAGTCCAGCTGGGTTCTAACCTGTTGCGTAG [GAGTCCACTAC_LTGcore_GC_RTGcore_CT] (site GAGTCCACTAC) (LTG core: GC, RTG core: CT)
The “recombinant barcode read abundance (log10)” value of the first is higher: 0.702 for the first, 0.0179 for the second.

Going from “GAGTCCAGTTGGGTTCTAACCTGTTGCGTAG [GAGTCCACTAC_LTGcore_GT_RTGcore_CT] (site GAGTCCACTAC) (LTG core: GT, RTG core: CT)” to “GAGTCCATTTGGGTTCTAACCTGTTGCGTAA [GAGTCCACTAC_LTGcore_TT_RTGcore_TT] (site GAGTCCACTAC) (LTG core: TT, RTG core: TT)”, the “recombinant barcode read abundance (log10)” value falls from 0.283 to 0.0342.

Compared with “GAGTCCTACTGGGTTCTAACCTGTTGCCTAG [GAGTCCTCTAG_LTGcore_AC_RTGcore_CT] (site GAGTCCTCTAG) (LTG core: AC, RTG core: CT)”, “GAGTCCTACTGGGTTCTAACCTGTTGCCTGT [GAGTCCTCTAG_LTGcore_AC_RTGcore_AC] (site GAGTCCTCTAG) (LTG core: AC, RTG core: AC)” is lower in “recombinant barcode read abundance (log10)” value: 0.674 for the first, 0.011 for the second.

First: GAGTCCTAGTGGGTTCTAACCTGTTGCCTAG [GAGTCCTCTAG_LTGcore_AG_RTGcore_CT] (site GAGTCCTCTAG) (LTG core: AG, RTG core: CT)
Second: GAGTCCTCATGGGTTCTAACCTGTTGCCTAG [GAGTCCTCTAG_LTGcore_CA_RTGcore_CT] (site GAGTCCTCTAG) (LTG core: CA, RTG core: CT)
The “recombinant barcode read abundance (log10)” value of the first is lower: 0.445 for the first, 1.08 for the second.

Compared with “GAGTCCTCCTGGGTTCTAACCTGTTGCCTGG [GAGTCCTCTAG_LTGcore_CC_RTGcore_CC] (site GAGTCCTCTAG) (LTG core: CC, RTG core: CC)”, “GAGTCCTCTTGGGTTCTAACCTGTTGCCTAA [GAGTCCTCTAG_LTGcore_CT_RTGcore_TT] (site GAGTCCTCTAG) (LTG core: CT, RTG core: TT)” is higher in “recombinant barcode read abundance (log10)” value: 0.561 for the first, 1.08 for the second.

First: GAGTCCTCTTGGGTTCTAACCTGTTGCCTCC [GAGTCCTCTAG_LTGcore_CT_RTGcore_GG] (site GAGTCCTCTAG) (LTG core: CT, RTG core: GG)
Second: GAGTCCTGCTGGGTTCTAACCTGTTGCCTAG [GAGTCCTCTAG_LTGcore_GC_RTGcore_CT] (site GAGTCCTCTAG) (LTG core: GC, RTG core: CT)
The “recombinant barcode read abundance (log10)” value of the first is higher: 1.21 for the first, 0.0703 for the second.

“GAGTCCTTATGGGTTCTAACCTGTTGCCTTA [GAGTCCTCTAG_LTGcore_TA_RTGcore_TA] (site GAGTCCTCTAG) (LTG core: TA, RTG core: TA)” and “GAGTCCTTCTGGGTTCTAACCTGTTGCCTAG [GAGTCCTCTAG_LTGcore_TC_RTGcore_CT] (site GAGTCCTCTAG) (LTG core: TC, RTG core: CT)” are within 0.2 log units of each other in “recombinant barcode read abundance (log10)” value: 0.136 for the first, 0.0148 for the second.

“GAGTCCTTCTGGGTTCTAACCTGTTGCCTGA [GAGTCCTCTAG_LTGcore_TC_RTGcore_TC] (site GAGTCCTCTAG) (LTG core: TC, RTG core: TC)” and “GAGTCCTTGTGGGTTCTAACCTGTTGCCTCA [GAGTCCTCTAG_LTGcore_TG_RTGcore_TG] (site GAGTCCTCTAG) (LTG core: TG, RTG core: TG)” are within 0.2 log units of each other in “recombinant barcode read abundance (log10)” value: 0.0603 for the first, 0.235 for the second.

“GCGCGACAATGGGTTCTAACCTGTTGCTTTT [GCGCGACCTAA_LTGcore_AA_RTGcore_AA] (site GCGCGACCTAA) (LTG core: AA, RTG core: AA)” and “GCGCGACCATGGGTTCTAACCTGTTGCTTTG [GCGCGACCTAA_LTGcore_CA_RTGcore_CA] (site GCGCGACCTAA) (LTG core: CA, RTG core: CA)” are within 0.2 log units of each other in “recombinant barcode read abundance (log10)” value: 0.188 for the first, 0.125 for the second.

In the case of “GCGCGACCCTGGGTTCTAACCTGTTGCTTGG [GCGCGACCTAA_LTGcore_CC_RTGcore_CC] (site GCGCGACCTAA) (LTG core: CC, RTG core: CC)”, the “recombinant barcode read abundance (log10)” value is reported as 0.0343.
